Counter-ions that a name gives are not always drawn.
Biological target: human Factor Xa (Homo sapiens, UniProt P00742)
Assay: In vitro assay for inhibition of Factor Xa (2), fluorogenic assay
Type: biochemical
Conditions: substrate Rhodamine 110, bis-(CBZ-glycylglycyl-L-arginine amide 10 μM), Ki calculated from IC50
Procedure, shortened: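 Enzyme (final 0.0003 U/mL) preincubated 15 min with compound at room temperature in 50 mM Tris-HCl, 150 mM NaCl, 5 mM CaCl2, pH 7.4, then rhodamine 110 bis-(CBZ-Gly-Gly-Arg amide) substrate added (final 10 μM).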

Chain of human Factor Xa (P00742 235-488 limits assumed): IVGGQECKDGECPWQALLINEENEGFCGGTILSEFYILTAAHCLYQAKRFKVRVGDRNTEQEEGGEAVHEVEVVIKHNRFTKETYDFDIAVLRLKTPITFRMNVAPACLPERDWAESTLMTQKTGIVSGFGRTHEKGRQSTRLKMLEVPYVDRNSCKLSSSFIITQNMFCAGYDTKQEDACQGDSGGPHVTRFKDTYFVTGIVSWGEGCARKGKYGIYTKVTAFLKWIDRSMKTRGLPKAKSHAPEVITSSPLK
Chain of human Factor Xa (P00742 41-179 partner limits assumed): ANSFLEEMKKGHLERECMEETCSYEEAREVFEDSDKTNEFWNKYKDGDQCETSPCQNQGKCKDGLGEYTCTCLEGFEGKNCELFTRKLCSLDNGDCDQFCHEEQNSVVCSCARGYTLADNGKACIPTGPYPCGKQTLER

| SMILES | Ki |
| --- | --- |
| N#Cc1ccc(N2CC[C@H](NS(=O)(=O)CCc3ccc(Cl)s3)C2=O)c(F)c1 [Example 99, 2-(5-Chlorothien-2-yl)-N-[(3S)-1-(4-cyano-2-fluorophenyl)-2-oxopyrrolidin-3-yl]ethanesulfonamide] | < 200 nM |
| O=C1[C@@H](NS(=O)(=O)c2ccc3cc(Cl)ccc3c2)CCN1c1ccc(N2CCOCC2)c(F)c1 [Example 103, 6-Chloro-N-{(3S)-1-[3-fluoro-4-(4-morpholinyl)phenyl]-2-oxopyrrolidinyl}-2-naphthalenesulfonamide] | < 1000 nM |
| CS(=O)(=O)c1ccccc1-c1ccc(N2CC[C@H](NS(=O)(=O)c3cccc(CN)c3)C2=O)c(F)c1 [Example 53, 3-(Aminomethyl)-N-{(3S)-1-[3-fluoro-2′-(methylsulfonyl)-1,1′-biphenyl-4-yl]-2-oxopyrrolidin-3-yl}benzenesulfonamide] | < 20 nM |
| CN(c1ccccc1-c1ccc(N2CC[C@H](NS(=O)(=O)/C=C/c3ccc(Cl)s3)C2=O)nc1)S(C)(=O)=O [Example 30, (E)-2-(5-Chlorothien-2-yl)-N-[(3S)-1-(5-{2-[methyl(methylsulfonyl)amino]phenyl}pyridin-2-yl)-2-oxopyrrolidin-3yl]ethenesulfonamide] | < 10 nM |
| NC(=O)c1ccc(N2CC[C@H](NS(=O)(=O)/C=C/c3ccc(Cl)s3)C2=O)nc1 [Example 106, 6-[(3S)-3-({[(E)-2-(5-Chlorothien-2-yl)ethenyl]sulfonyl}amino)-2-oxopyrrolidin-1-yl]nicotinamide] | < 200 nM |
| CS(=O)(=O)c1ccccc1-c1ccc(N2CC[C@H](NS(=O)(=O)c3c(Cl)sc4ccsc34)C2=O)c(F)c1 [Example 88, 2-Chloro-N-{(3S)-1-[3-fluoro-2′-(methylsulfonyl)-1,1′-biphenyl-4-yl]-2-oxopyrrolidin-3-yl}thieno[3.2-b]thiophene-3-sulfonamide] | < 20 nM |
| CS(=O)(=O)c1ccccc1-c1ccc(N2CC[C@H](N(CCN3CCOCC3)S(=O)(=O)/C=C/c3ccc(Cl)s3)C2=O)c(F)c1 [Example 45, (E)-2-(5-Chlorothien-2-yl)-N-{(3S)-1-[3-fluoro-2′-(methylsulfonyl)-1,1′-biphenyl-4-yl]-2-oxopyrrolidin-3-yl}-N-(2-morpholin-4-ylethyl)ethenesulfonamide] | < 10 nM |
| CS(=O)(=O)c1ccccc1-c1ccc(N2CC[C@H](NS(=O)(=O)/C=C/c3ccc(Cl)cc3)C2=O)c(F)c1 [Example 7, (E)-2-(4-Chlorophenyl)-N-{(3S)-1-[3-fluoro-2′-(methylsulfonyl)-1,1′-biphenyl-4-yl]-2-oxopyrrolidin-3-yl}ethenesulfonamide] | < 10 nM |
| C/C(=C\S(=O)(=O)N[C@H]1CCN(c2ccc(C(=O)N(C)C)cc2F)C1=O)c1ccc(Cl)s1 [Example 110, 4-[(3S)-3({[(1E)-2-(5-Chlorothien-2-yl)prop-1-enyl]sulfonyl}amino)-2-oxopyrrolidin-1-yl]-3-fluoro-N,N-dimethylbenzamide] | < 10 nM |
| CS(=O)(=O)c1ccccc1-c1ccc(N2CC[C@H](NS(=O)(=O)c3cc4ncc(Cl)cc4s3)C2=O)c(F)c1 [Example 37, 6-Chloro-N-{(3S)-1-[3-fluoro-2′-(methylsulfonyl)-1,1′-biphenyl-yl]-2-oxopyrrolidin-3-yl}thieno[3,2b]pyridine-2-sulfonamide] | < 20 nM |
| CN(C)S(=O)(=O)c1ccccc1-c1ccc(N2CC[C@H](NS(=O)(=O)/C=C/c3ccc(Cl)s3)C2=O)nc1 [Example 28] | < 10 nM |
| CC(C)(C)OC(=O)CN([C@H]1CCN(c2ccc(-c3ccccc3S(C)(=O)=O)cn2)C1=O)S(=O)(=O)/C=C/c1ccc(Cl)s1 [Example 40, tert-Butyl [{[(E)-2-(5-Chlorothien-2-yl)ethenyl]sulfonyl}((3S)-1-{5-[2-(methylsulfonyl)phenyl]pyridin-2-yl}-2-oxopyrrolidin-3-yl)amino]acetate] | < 10 nM |
| C[N+](C)(CC(N)=O)Cc1nccn1-c1ccc(N2CC[C@H](NS(=O)(=O)CCc3ccc(Cl)s3)C2=O)c(F)c1 [Example 143, 2-Amino-N-[(1-{4-[(3S)-3-({[2-(5-chlorothien-2-yl)ethyl]sulfonyl}amino)-2-oxopyrrolidin-1-yl]-3-fluorophenyl}-1H-imidazol-2-yl)methyl]-N,N-dimethyl-2-oxoethanaminium Formate] | < 10 nM |
| O=C1[C@@H](NS(=O)(=O)/C=C/c2ccc(Cl)s2)CCN1c1ccc(-c2ccccc2[N+](=O)[O-])cc1F [Example 18, (E)-2-(5-Chlorothien-2-yl)-N-[(3S)-1-(3-fluoro-2′-nitro-1,1′-biphenyl-4-yl)-2-oxopyrrolidin-3-yl]ethenesulfonamide] | < 10 nM |

Further lines, results first:

| Ki | SMILES |
| --- | --- |
| < 20 nM | Cc1noc(C)c1-c1ccc(N2CC[C@H](NS(=O)(=O)c3ccc4cc(Cl)ccc4c3)C2=O)c(F)c1 [Example 72, 6-Chloro-N-{(3S)-1-[4-(3,5-dimethylisoxazol-4-yl)-2-fluorophenyl]-2-oxopyrrolidin-3-yl}naphthalene-2-sulfonamide] |
| < 200 nM | Cc1cscc1-c1ccc(N2CC[C@H](NS(=O)(=O)c3ccc4cc(Cl)ccc4c3)C2=O)c(F)c1 [Example 69, 6-Chloro-N-{(3S)-1-[2-fluoro-4-(4-methylthien-3-yl)phenyl]-2-oxopyrrolidin-3-yl}naphthalene-2-sulfonamide] |
| < 1000 nM | O=C1[C@@H](NS(=O)(=O)c2ccc3cc(Cl)ccc3c2)CCN1c1ccc(-c2ncccn2)cc1F [Example 81, 6-Chloro-N-[(3S)-1-(2-fluoro-4-pyrimidin-2-ylphenyl)-2-oxopyrrolidin-3-yl]naphthalene-2-sulfonamide] |
| < 20 nM | Cn1cnc(-c2ccc(N3CC[C@H](NS(=O)(=O)c4ccc5cc(Cl)ccc5c4)C3=O)c(F)c2)c1 [Example 84, 6Chloro-N-{(3S)-1-[2-fluoro-4-(1-methyl-1H-imidazol-4-yl)phenyl]-2-oxopyrrolidin-3-yl}naphthalene-2-sulfonamide Formate] |
| < 200 nM | COc1ccc(-c2ccc(N3CC[C@H](NS(=O)(=O)c4ccc5cc(Cl)ccc5c4)C3=O)c(F)c2)cn1 [Example 58, 6-Chloro-N-{(3S)-1-[2-fluoro-4-(6-methoxypyridin-3-yl)phenyl]-2-oxopyrrolidin-3-yl}naphthalene-2-sulfonamide] |
| < 200 nM | O=C1[C@@H](NS(=O)(=O)c2ccc3cc(Cl)ccc3c2)CCN1c1ccc(-c2ccc(Cl)s2)cc1F [Example 71, 6-Chloro-N-{(3S)-1-[4-(5-chlorothien-2-yl)-2-fluorophenyl]-2-oxopyrrolidin-3-yl}naphthalene-2-sulfonamide] |
| < 10 nM | O=C1[C@@H](NS(=O)(=O)c2ccc3cc(Cl)ccc3c2)CCN1c1ccc(-c2cccnc2Cl)cc1F [Example 78, 6-Chloro-N-{(3S)-1-[4-(2-chloropyridin-3-yl)-2-fluorophenyl]-2-oxopyrrolidin-3-yl}naphthalene-2-sulfonamide] |
| < 10 nM | CS(=O)(=O)c1ccccc1-c1ccc(N2CC[C@H](NS(=O)(=O)c3cc4ccc(Cl)cc4s3)C2=O)c(F)c1 [Example 11, 6-Chloro-N-{(3S)-1-[3-fluoro-2′-(methylsulfonyl)-1,1′-biphenyl-4-yl]-2-oxopyrrolidin-3-yl}-1-benzothiophene-2-sulfonamide] |
| < 20 nM | O=Cc1ccsc1-c1ccc(N2CC[C@H](NS(=O)(=O)c3ccc4cc(Cl)ccc4c3)C2=O)c(F)c1 [Example 70, 6-Chloro-N-{(3S)-1-[2-fluoro-4-(3-formylthien-2-yl)phenyl]-2-oxopyrrolidin-3-yl}naphthalene-2-sulfonamide] |
